Laboratory results as given in patent CN111686108A, “表小檗碱在制备抗幽门螺旋杆菌感染药物中的应用” (Southwest University, priority 2020, dated 2020).
In brackets after ≈: the same amount, converted by molar mass. Like-named read-outs stand apart in the source and are kept apart here. Values belong to the compound of their own block, whether it stands above or below them.

Tests used:
[1] = test system: Helicobacter pylori 11637 [幽门螺旋杆菌(11637)]; test: MIC determination by two-fold (倍半) dilution on MH agar, single drugs and mixed drugs, H. pylori 11637; type: cell-based; details: for MIC: Helicobacter pylori
[2] = molecular target: cytochrome P450 isoform CYP2D6 [细胞色素P450亚型CYP2D6] (Homo sapiens, UniProt P10635); details: in words; background; cited from earlier work
BACE1 = BACE1 (Homo sapiens, UniProt P56817); details: in words; background; cited from earlier work
aldose reductase [醛糖还原酶] = aldose reductase [醛糖还原酶] (Homo sapiens, UniProt P15121); details: in words; background; cited from earlier work
α receptor [α受体] = details: in words; background; cited from earlier work
[3] = in words, background; cited from earlier work
[4] = drug alone, H. pylori 11637, MH agar, 85%N2, 10%CO2, 5%O2, 48~72h, read-out: MIC

cytochrome P450 isoform CYP2D6 [细胞色素P450亚型CYP2D6], sequence (P10635 whole entry, canonical isoform): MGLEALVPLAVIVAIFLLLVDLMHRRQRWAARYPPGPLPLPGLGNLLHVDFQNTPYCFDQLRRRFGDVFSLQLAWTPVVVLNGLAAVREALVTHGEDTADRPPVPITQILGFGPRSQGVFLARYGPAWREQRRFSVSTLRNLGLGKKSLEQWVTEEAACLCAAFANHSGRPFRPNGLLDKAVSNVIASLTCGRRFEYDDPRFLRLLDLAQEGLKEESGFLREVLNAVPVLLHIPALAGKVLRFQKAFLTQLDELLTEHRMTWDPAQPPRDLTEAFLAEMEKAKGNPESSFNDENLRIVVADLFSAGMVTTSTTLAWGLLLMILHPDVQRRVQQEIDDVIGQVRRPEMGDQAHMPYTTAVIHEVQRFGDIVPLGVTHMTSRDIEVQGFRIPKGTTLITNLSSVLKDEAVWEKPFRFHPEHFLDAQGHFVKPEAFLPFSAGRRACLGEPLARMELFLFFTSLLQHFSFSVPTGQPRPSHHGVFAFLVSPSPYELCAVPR
BACE1, sequence (P56817 46-501, species assumed): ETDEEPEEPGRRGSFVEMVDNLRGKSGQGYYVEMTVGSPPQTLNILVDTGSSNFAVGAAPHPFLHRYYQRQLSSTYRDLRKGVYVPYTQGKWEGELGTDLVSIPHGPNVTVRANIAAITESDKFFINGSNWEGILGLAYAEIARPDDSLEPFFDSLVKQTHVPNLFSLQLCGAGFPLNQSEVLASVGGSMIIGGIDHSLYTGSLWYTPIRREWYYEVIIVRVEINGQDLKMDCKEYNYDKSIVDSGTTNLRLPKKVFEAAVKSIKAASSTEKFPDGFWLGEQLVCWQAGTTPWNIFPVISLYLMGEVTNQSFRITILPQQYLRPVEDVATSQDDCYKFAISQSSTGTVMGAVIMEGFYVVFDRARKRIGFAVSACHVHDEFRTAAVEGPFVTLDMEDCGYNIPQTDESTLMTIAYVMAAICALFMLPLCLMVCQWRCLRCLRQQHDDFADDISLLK

MIC [1, 4]: 1.56 µg/mL (≈ 9.11 µM)
Structure (SMILES): Cc1ncc([N+](=O)[O-])n1CCO [甲, 甲硝唑]

MIC [1, 4]: 3.1 µg/mL (≈ 8.58 µM)
Structure (SMILES): C[C@H]1COc2c(N3CCN(C)CC3)c(F)cc3c(=O)c(C(=O)O)cn1c23 [左, 左氧氟沙星]

MIC [1, 4]: 100 µg/mL (≈ 289 µM)
Structure (SMILES): COc1ccc2[nH]c([S+]([O-])Cc3ncc(C)c(OC)c3C)nc2c1 (stereo not drawn) [奥, 奥美拉唑]

MIC [1, 4]: 0.05 µg/mL (≈ 0.137 µM)
Structure (SMILES): CC1(C)S[C@@H]2[C@H](NC(=O)[C@H](N)c3ccc(O)cc3)C(=O)N2[C@H]1C(=O)O [阿, 阿莫西林]

Further lines, the compound ahead of its results:

Structure (SMILES): COc1ccc2cc3[n+](cc2c1OC)CCc1cc2c(cc1-3)OCO2.[Cl-] [BBR, 小檗碱盐酸盐]
MIC ([1]; 72 h): 50 µg/mL
synergistic effect ([1]; in words, combined with omeprazole (奥美拉唑), from table 1): 有一定的协同作用

Structure (SMILES): COc1cc2c(cc1OC)-c1cc3ccc4c(c3c[n+]1CC2)OCO4 [e-BBR, 表小檗碱]
MIC [1, 4]: 100 µg/mL
anti-Hp activity ([1]; in words, compared with berberine (小檗碱), from table 1): 低于小檗碱
inhibitory activity on CYP2D6 [2]: 较强的抑制活性
BACE1 inhibitory activity (BACE1): 非竞争性BACE1抑制活性
inhibition of aldose reductase activity (aldose reductase [醛糖还原酶]): 抑制醛糖还原酶活性
α receptor blocking effect (α receptor [α受体]): α受体阻断作用
in vitro hypoglycaemic activity [3]: 体外降血糖活性

Structure (SMILES): CC[C@H]1OC(=O)[C@H](C)[C@@H](O[C@H]2C[C@@](C)(OC)[C@@H](O)[C@H](C)O2)[C@H](C)[C@@H](O[C@@H]2O[C@H](C)C[C@H](N(C)C)[C@H]2O)[C@](C)(OC)C[C@@H](C)C(=O)[C@H](C)[C@@H](O)[C@]1(C)O [克, 克拉霉素]
MIC [1, 4]: 0.1 µg/mL (≈ 0.134 µM)

Structure (SMILES): O=C1OCCN1/N=C/c1ccc([N+](=O)[O-])o1 [呋, 呋喃唑酮]
MIC [1, 4]: 1.56 µg/mL (≈ 6.93 µM)
